Test results: ChEMBL document CHEMBL4308841, “Synthesis, in vitro antiproliferative activity, and kinase inhibitory effects of pyrazole-containing diarylureas and diarylamides” (Eur J Med Chem, 2018)

Experiments:
A549 = assay: Growth inhibition of human A549/ATCC cells incubated for 48 hrs by sulforhodamine B assay; type: functional, cell-based; conditions: A549, 48 h
HCT-116 [1] = assay: Growth inhibition of human HCT116 cells incubated for 48 hrs by sulforhodamine B assay; type: functional, cell-based; conditions: HCT-116, 48 h
SF-295 = assay: Growth inhibition of human SF295 cells incubated for 48 hrs by sulforhodamine B assay; type: functional, cell-based; conditions: SF-295, 48 h
SK-MEL-28 = assay: Growth inhibition of human SK-MEL-28 cells incubated for 48 hrs by sulforhodamine B assay; type: functional, cell-based; conditions: SK-MEL-28, 48 h
MDA-MB-231 [2] = assay: Growth inhibition of human MDA-MB-231 cells incubated for 48 hrs by sulforhodamine B assay; type: functional, cell-based; conditions: MDA-MB-231, 48 h
T47D [3] = assay: Growth inhibition of human T47D cells incubated for 48 hrs by sulforhodamine B assay; type: functional, cell-based
K562 = assay: Growth inhibition of human K562 cells assessed as cell growth at 0.01 uM incubated for 48 hrs by sulforhodamine B assay relative to control; type: functional; conditions: K562, 48 h, read-out: Activity
Malme-3M = assay: Growth inhibition of human MALME-3M cells assessed as cell growth at 0.01 uM incubated for 48 hrs by sulforhodamine B assay relative to control; type: functional; conditions: read-out: Activity
OVCAR-8 = assay: Growth inhibition of human OVCAR8 cells assessed as cell growth at 0.01 uM incubated for 48 hrs by sulforhodamine B assay relative to control; type: functional; conditions: OVCAR-8, 48 h, read-out: Activity
A498 = assay: Growth inhibition of human A498 cells assessed as cell growth at 0.01 uM incubated for 48 hrs by sulforhodamine B assay relative to control; type: functional; conditions: A498, 48 h, read-out: Activity
CAKI-1 = assay: Growth inhibition of human Caki1 cells assessed as cell growth at 0.01 uM incubated for 48 hrs by sulforhodamine B assay relative to control; type: functional; conditions: CAKI-1, 48 h, read-out: Activity
NCI-H460 = assay: Growth inhibition of human NCI-H460 cells assessed as cell growth at 0.1 uM incubated for 48 hrs by sulforhodamine B assay relative to control; type: functional; conditions: NCI-H460, 48 h, read-out: Activity
HCT-116 [4] = assay: Growth inhibition of human HCT116 cells assessed as cell growth at 0.1 uM incubated for 48 hrs by sulforhodamine B assay relative to control; type: functional; conditions: HCT-116, 48 h, read-out: Activity
IGROV-1 = assay: Growth inhibition of human IGROV1 cells assessed as cell growth at 0.1 uM incubated for 48 hrs by sulforhodamine B assay relative to control; type: functional; conditions: IGROV-1, 48 h, read-out: Activity
NCI/ADR-RES = assay: Growth inhibition of human NCI/ADR-RES cells assessed as cell growth at 0.1 uM incubated for 48 hrs by sulforhodamine B assay relative to control; type: functional; conditions: read-out: Activity
ACHN = assay: Growth inhibition of human ACHN cells assessed as cell growth at 0.1 uM incubated for 48 hrs by sulforhodamine B assay relative to control; type: functional; conditions: read-out: Activity
MCF7 = assay: Growth inhibition of human MCF7 cells assessed as cell growth at 0.1 uM incubated for 48 hrs by sulforhodamine B assay relative to control; type: functional; conditions: MCF7, 48 h, read-out: Activity
T47D [5] = assay: Growth inhibition of human T47D cells assessed as cell growth at 0.1 uM incubated for 48 hrs by sulforhodamine B assay relative to control; type: functional; conditions: read-out: Activity
SNB-75 = assay: Growth inhibition of human SNB75 cells assessed as cell growth at 1 uM incubated for 48 hrs by sulforhodamine B assay relative to control; type: functional; conditions: SNB-75, 48 h, read-out: Activity
MDA-MB-435 = assay: Growth inhibition of human MDA-MB-435 cells assessed as cell growth at 1 uM incubated for 48 hrs by sulforhodamine B assay relative to control; type: functional; conditions: MDA-MB-435, 48 h, read-out: Activity
UACC-62 [6] = assay: Growth inhibition of human UACC62 cells assessed as cell growth at 1 uM incubated for 48 hrs by sulforhodamine B assay relative to control; type: functional; conditions: UACC-62, 48 h, read-out: Activity
RXF 393 = assay: Growth inhibition of human RXF393 cells assessed as cell growth at 1 uM incubated for 48 hrs by sulforhodamine B assay relative to control; type: functional; conditions: RXF 393, 48 h, read-out: Activity
DU-145 [7] = assay: Growth inhibition of human DU145 cells assessed as cell growth at 1 uM incubated for 48 hrs by sulforhodamine B assay relative to control; type: functional; conditions: DU-145, 48 h, read-out: Activity
T47D [8] = assay: Growth inhibition of human T47D cells assessed as cell growth at 1 uM incubated for 48 hrs by sulforhodamine B assay relative to control; type: functional; conditions: read-out: Activity
KM12 = assay: Growth inhibition of human KM12 cells assessed as cell growth at 100 uM incubated for 48 hrs by sulforhodamine B assay relative to control; type: functional; conditions: KM12, 48 h, read-out: Activity
SK-MEL-2 = assay: Growth inhibition of human SK-MEL-2 cells assessed as cell growth at 100 uM incubated for 48 hrs by sulforhodamine B assay relative to control; type: functional; conditions: SK-MEL-2, 48 h, read-out: Activity
UACC-62 [9] = assay: Growth inhibition of human UACC62 cells assessed as cell growth at 100 uM incubated for 48 hrs by sulforhodamine B assay relative to control; type: functional; conditions: UACC-62, 48 h, read-out: Activity
DU-145 [10] = assay: Growth inhibition of human DU145 cells assessed as cell growth at 100 uM incubated for 48 hrs by sulforhodamine B assay relative to control; type: functional; conditions: DU-145, 48 h, read-out: Activity
MDA-MB-231 [11] = assay: Growth inhibition of human MDA-MB-231 cells assessed as cell growth at 100 uM incubated for 48 hrs by sulforhodamine B assay relative to control; type: functional; conditions: MDA-MB-231, 48 h, read-out: Activity
[12] = read-out: LC50 (the source's name)
[13] = read-out: pLC50 (the source's name) (converted)

SMILES: O=C(Nc1cccc(-n2cc(-c3ccncc3)c(-c3cc(O)cc(Cl)c3)n2)c1)Nc1ccc(Cl)c(C(F)(F)F)c1
- IC50 (A549): 2.33 µM
- GI50 (A549; read-out: GI50): 2.33 µM
- CC50 (A549; [12]): > 100 µM
- TGI (A549; read-out: TGI): 92 µM
- GI50 (A549; read-out: pGI50 (converted)): 2.34 µM
- CC50 (A549; [13]): > 100 µM
- TGI (A549; read-out: pTGI (converted)): 9.12 µM
- IC50 (HCT-116 [1]): 1.96 µM
- GI50 (HCT-116 [1]; read-out: GI50): 1.96 µM
- CC50 (HCT-116 [1]; [12]): 10.7 µM
- TGI (HCT-116 [1]; read-out: TGI): 44.7 µM
- GI50 (HCT-116 [1]; read-out: pGI50 (converted)): 1.95 µM
- CC50 (HCT-116 [1]; [13]): 10.7 µM
- TGI (HCT-116 [1]; read-out: pTGI (converted)): 4.47 µM
- GI50 (SF-295; read-out: GI50): 2.06 µM
- CC50 (SF-295; [12]): 17 µM
- TGI (SF-295; read-out: TGI): 49.6 µM
- GI50 (SF-295; read-out: pGI50 (converted)): 2.57 µM
- CC50 (SF-295; [13]): 17.8 µM
- TGI (SF-295; read-out: pTGI (converted)): 4.9 µM
- GI50 (SK-MEL-28; read-out: GI50): 2.01 µM
- CC50 (SK-MEL-28; [12]): 25.5 µM
- TGI (SK-MEL-28; read-out: TGI): 62 µM
- GI50 (SK-MEL-28; read-out: pGI50 (converted)): 2 µM
- CC50 (SK-MEL-28; [13]): 26.3 µM
- TGI (SK-MEL-28; read-out: pTGI (converted)): 6.17 µM
- GI50 (MDA-MB-231 [2]; read-out: GI50): 1.55 µM
- CC50 (MDA-MB-231 [2]; [12]): > 100 µM
- TGI (MDA-MB-231 [2]; read-out: TGI): 50.6 µM
- GI50 (MDA-MB-231 [2]; read-out: pGI50 (converted)): 1.86 µM
- CC50 (MDA-MB-231 [2]; [13]): > 100 µM
- TGI (MDA-MB-231 [2]; read-out: pTGI (converted)): 5.89 µM
- GI50 (T47D [3]; read-out: GI50): 2.44 µM
- CC50 (T47D [3]; [12]): 91.5 µM
- TGI (T47D [3]; read-out: TGI): 92.7 µM
- GI50 (T47D [3]; read-out: pGI50 (converted)): 2.45 µM
- CC50 (T47D [3]; [13]): 91.2 µM
- TGI (T47D [3]; read-out: pTGI (converted)): 9.33 µM
- growth at 0.01 µM (K562): 101%
- growth at 0.01 µM (Malme-3M): 93%
- growth at 0.01 µM (OVCAR-8): 102%
- growth at 0.01 µM (A498): 58%
- growth at 0.01 µM (CAKI-1): 102%
- growth at 0.1 µM (NCI-H460): 102%
- growth at 0.1 µM (HCT-116 [4]): 103%
- growth at 0.1 µM (IGROV-1): 98%
- growth at 0.1 µM (NCI/ADR-RES): 92%
- growth at 0.1 µM (ACHN): 93%
- growth at 0.1 µM (MCF7): 91%
- growth at 0.1 µM (T47D [5]): 90%
- growth at 1 µM (SNB-75): 54%
- growth at 1 µM (MDA-MB-435): 57%
- growth at 1 µM (UACC-62 [6]): 99%
- growth at 1 µM (RXF 393): 58%
- growth at 1 µM (DU-145 [7]): 96%
- growth at 1 µM (T47D [8]): 53%
- growth at 100 µM (KM12): -74%
- growth at 100 µM (SK-MEL-2): -88%
- growth at 100 µM (UACC-62 [9]): -85%
- growth at 100 µM (DU-145 [10]): -68%
- growth at 100 µM (MDA-MB-231 [11]): -38%
